Measured values: the Deep4Chem optical property database

Experiment: solvent given as SMILES

Work on `CCCCCCCCCCCCCCCCCCOC(=O)/C=C/C1=CC2=C(c3c(C)cc(C)cc3C)c3cc(/C=C/C(=O)OCCCCCCCCCCCCCCCCCC)cn3[B-](F)(F)[N+]2=C1` yielded an absorption maximum (in ClCCl) of 578 nm.
Work on `N#Cc1nn(-c2c(Cl)cccc2Cl)nc1N1CCCC1` yielded an absorption maximum (in CC#N) of 317 nm.
For `CN(C)c1ccc(/C=C/c2nc3ccccc3s2)cc1`, the absorption maximum (in C1CCCCC1) was 384 nm, the absorption maximum (in C1CCOC1) was 396 nm and the absorption maximum (in C1COCCO1) was 393 nm. The absorption maximum (in CC#N) was 401 nm, the absorption maximum (in CC(C)O) was 394 nm and the absorption maximum (in CCCCCC) was 384 nm. It also gave an absorption maximum (in CCCCCCC) of 387 nm, an absorption maximum (in CCO) of 396 nm and an absorption maximum (in CCOC(C)=O) of 391 nm. The absorption maximum (in CCOCC) was 390 nm, the absorption maximum (in CN(C)C=O) was 402 nm and the absorption maximum (in CO) was 397 nm. The absorption maximum (in CS(C)=O) was 405 nm, the absorption maximum (in O) was 402 nm and the absorption maximum (in OCC(O)CO) was 409 nm.
With `Cc1cccc2cc(-c3cc4cccc(C)c4oc3=O)oc12` the absorption maximum (in CC#N) was 369 nm, the absorption maximum (in CCOC(C)=O) was 370 nm and the absorption maximum (in CS(C)=O) was 373 nm. It also gave an absorption maximum (in Cc1ccccc1) of 376 nm and an absorption maximum (in O) of 367 nm.
With `CCCCCCCCCc1c2ccccc2cc2c1oc1c3c(c4ccccc4c12)-c1c(c2oc4cc5ccccc5cc4c2c2ccccc12)OCO3` the absorption maximum (in C1CCOC1) was 397 nm.
In the case of `COc1ccc(C2=C3C=c4c(oc5ccccc45)=[N+]3[B-](F)(F)n3c2cc2c4ccccc4oc23)cc1`, the absorption maximum (in C1CCCCC1) was 583.5 nm, the absorption maximum (in CCOC(C)=O) was 578 nm and the absorption maximum (in CO) was 576.5 nm.
`Cc1oc(-c2ccccc2)nc1C(=O)O` gave an absorption maximum (in C1CCCCC1) of 269 nm, an absorption maximum (in CC#N) of 267 nm and an absorption maximum (in CCO) of 273 nm. It also gave an absorption maximum (in CCOC(C)=O) of 267 nm and an absorption maximum (in O) of 273 nm.
Molecule `CC1(C)c2ccccc2N(c2ccc(-c3nnc(-c4ccccc4O)o3)cc2)c2ccccc21` has an absorption maximum (in C1CCOC1) of 361 nm, an absorption maximum (in C1COCCO1) of 363 nm and an absorption maximum (in CC#N) of 358 nm. It also gave an absorption maximum (in CC(C)=O) of 361 nm, an absorption maximum (in CCCCCC) of 362 nm and an absorption maximum (in CCO) of 361 nm. For the same molecule, the absorption maximum (in CCOC(C)=O) was 360 nm, the absorption maximum (in CN(C)C=O) was 360 nm and the absorption maximum (in CS(C)=O) was 364 nm. The absorption maximum (in Cc1ccccc1) was 362 nm, the absorption maximum (in ClC(Cl)Cl) was 365 nm and the absorption maximum (in ClCCCl) was 368 nm. It also gave an absorption maximum (in ClCCl) of 366 nm and an absorption maximum (in Clc1ccccc1) of 367 nm.
Molecule `c1ccc(N(c2ccccc2)c2ccc(-c3ncnc4ccccc34)cc2)cc1` has an absorption maximum (in ClCCl) of 380 nm.
In the case of `CC1=[N+]2C(=C(c3ccccc3C)c3ccc(C)n3[B-]2(F)F)C=C1c1cc2n(c1)[B-](F)(F)[N+]1=CC=CC1=C2c1c(C)cc(C)cc1C`, the absorption maximum (in C1CCCCC1) was 595 nm and the absorption maximum (in CCOC(C)=O) was 599 nm.
In the case of `F[B-]1(F)n2c(c(-c3ccccc3)c(-c3ccccc3)c2-c2ccccc2)C=C2C(c3ccccc3)=C(c3ccccc3)C(c3ccccc3)=[N+]21`, the absorption maximum (in C1CCOC1) was 576 nm.
With `CCCCN1C(=O)c2cc(Br)c3c4c(Br)c(Br)c5c6c(cc(Br)c(c7c(Br)c(Br)c(c2c37)C1=O)c64)C(=O)N(CCCC)C5=O` the absorption maximum (in ClC(Cl)Cl) was 534 nm.
Work on `COc1cc(OC)c2cc(-c3cccc(-c4cc5c(OC)cc(OC)cc5oc4=O)c3)c(=O)oc2c1` yielded an absorption maximum (in ClC(Cl)Cl) of 352 nm.
Work on `CCCN1/C(=C/C=C(/C=C/C2=[N+](CCC)c3ccccc3C2(C)C)c2cc[n+](C)cc2)C(C)(C)c2ccccc21` yielded an absorption maximum (in CO) of 627 nm, an absorption maximum (in CS(C)=O) of 637 nm and an absorption maximum (in O) of 626 nm.
Molecule `CN(C)c1ccc(-c2cc(-c3ccc(C#N)cc3)nn2C)cc1` has an absorption maximum (in C1CCCCC1) of 288 nm, an absorption maximum (in CC#N) of 292 nm and an absorption maximum (in CCOC(C)=O) of 290 nm. For the same molecule, the absorption maximum (in CCOCC) was 289 nm, the absorption maximum (in CN(C)C=O) was 295 nm and the absorption maximum (in Cc1ccccc1) was 292 nm. For the same molecule, the absorption maximum (in ClCCl) was 292 nm.
With `CCN(CC)c1ccc2cc3ccc(=[N+](CC)CC)cc-3oc2c1` the absorption maximum (in CC#N) was 525 nm, the absorption maximum (in CCO) was 526 nm and the absorption maximum (in CN(C)C=O) was 535 nm. The absorption maximum (in O) was 550 nm.
